Measured values: US10131652B2, “Pyrimidinyloxy benzene derivatives as herbicides” (E. I. DU PONT DE NEMOURS AND COMPANY, priority 2014, dated 2018)

Key:
Format in all cases: in vivo
[1] = tested on: small-flower umbrella sedge (Cyperus difformis); assay: Test C flooded paddy test plant response; conditions: Flood, 250 g ai/ha; scale of 0 to 100 where 0 is no effect and 100 is complete control; 13 to 15 days
Summary of the method: (§1)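 Scored visually on a 0–100 scale (100 = complete control) against untreated plants 13 to 15 days after treatment in the greenhouse. Compounds went into paddy water of pots flooded to 3 cm, holding 2-leaf-stage plants.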

[2] = tested on: ducksalad (Heteranthera limosa); assay: Test C flooded paddy test plant response; conditions: Flood, 250 g ai/ha; scale of 0 to 100 where 0 is no effect and 100 is complete control; 13 to 15 days
Summary of the method: as §1

[3] = tested on: rice (Oryza sativa); assay: Test C flooded paddy test plant response; conditions: Flood, 250 g ai/ha; scale of 0 to 100 where 0 is no effect and 100 is complete control; 13 to 15 days
Summary of the method: as §1

[4] = tested on: barnyardgrass (Echinochloa crus-galli); assay: Test C flooded paddy test plant response; conditions: Flood, 250 g ai/ha; scale of 0 to 100 where 0 is no effect and 100 is complete control; 13 to 15 days
Summary of the method: as §1

[5] = tested on: galium (catchweed bedstraw, Galium aparine); assay: Test D pre-/postemergence plant response
Summary of the method: (§2)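 0 = no effect, 100 = complete control: plants were scored this way by visual comparison with controls 13 to 15 days post-treatment. Application was preemergence to sown loam/sand pots or postemergence to 2–18 cm seedlings in peat-based mix.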

[6] = tested on: lambsquarters (Chenopodium album); assay: Test D pre-/postemergence plant response
Summary of the method: as §2

[7] = tested on: velvetleaf (Abutilon theophrasti); assay: Test D pre-/postemergence plant response
Summary of the method: as §2

[8] = tested on: winter wheat (Triticum aestivum); assay: Test D pre-/postemergence plant response
Summary of the method: as §2

[9] = tested on: Italian ryegrass (Lolium multiflorum); assay: Test D pre-/postemergence plant response
Summary of the method: as §2

[10] = tested on: corn (Zea mays); assay: Test D pre-/postemergence plant response
Summary of the method: as §2

[11] = tested on: oilseed rape (Brassica napus); assay: Test D pre-/postemergence plant response
Summary of the method: as §2

[12] = tested on: kochia (Kochia scoparia); assay: Test B pre-/postemergence plant response
Summary of the method: (§3)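 Steps: plant seeds in loam soil–sand mix; spray soil preemergence, and in parallel spray 2–10 cm one- to two-leaf plants postemergence; hold ~10 days in greenhouse; visually rate injury against untreated controls (0 = no effect, 100 = complete control).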

[13] = tested on: ragweed (common ragweed, Ambrosia elatior); assay: Test B pre-/postemergence plant response
Summary of the method: as §3

[14] = tested on: Italian ryegrass (Lolium multiflorum); assay: Test B pre-/postemergence plant response
Summary of the method: as §3

[15] = Postemergence, 16 g ai/ha, scale 0 to 100 (0 no effect, 100 complete control)
[16] = Postemergence, 31 g ai/ha, scale 0 to 100 (0 no effect, 100 complete control)
[17] = Postemergence, 62 g ai/ha, scale 0 to 100, 0 no effect, 100 complete control
[18] = Postemergence, 125 g ai/ha, scale 0 to 100, 0 no effect, 100 complete control
[19] = Preemergence, 16 g ai/ha, scale 0 to 100 (0 no effect, 100 complete control)
[20] = Preemergence, 31 g ai/ha, scale 0 to 100 (0 no effect, 100 complete control)
[21] = Preemergence, 62 g ai/ha, scale 0 to 100 (0 no effect, 100 complete control)
[22] = 125 g ai/ha, postemergence, 0 to 100 scale, 0 no effect, 100 complete control
[23] = Postemergence, 500 g ai/ha, 0 to 100 scale (0 no effect, 100 complete control)
[24] = Preemergence, 125 g ai/ha, 0 to 100 scale where 0 is no effect and 100 is complete control
[25] = Preemergence, 500 g ai/ha, 0 to 100 scale where 0 is no effect and 100 is complete control
[26] = 31 g ai/ha, Postemergence, 0 to 100 scale, 0 no effect, 100 complete control
[27] = Preemergence, 31 g ai/ha, 0 to 100 scale (0 no effect, 100 complete control)

Structure (SMILES): Cc1cc(-c2ccccc2Oc2ncc(Cl)cn2)no1 [Compound 60]
- Sedge, Umbrella plant response rating [1]: 50
- Ducksalad plant response rating [2]: 80
- Rice plant response rating [3]: 30
- Barnyardgrass plant response rating [4]: 20
- Galium plant response rating [5, 15]: 30
- Galium plant response rating [5, 16]: 40
- Plant response rating, Galium [5, 17]: 50
- Plant response rating, Galium [5, 18]: 65
- Plant response rating (scale 0 to 100), Galium ([5]; Preemergence, 125 g ai/ha): 98
- Plant response rating, Galium [5, 19]: 98
- Plant response rating, Galium [5, 20]: 85
- Plant response rating, Galium [5, 21]: 100
- Lambsquarters plant response rating [6, 15]: 20
- Lambsquarters plant response rating [6, 16]: 20
- Plant response rating, Lambsquarters [6, 17]: 55
- Plant response rating, Lambsquarters [6, 18]: 75
- Plant response rating (scale 0 to 100), Lambsquarters ([6]; Preemergence, 125 g ai/ha): 100
- Plant response rating, Lambsquarters [6, 19]: 10
- Plant response rating, Lambsquarters [6, 20]: 80
- Plant response rating, Lambsquarters [6, 21]: 85
- Velvetleaf plant response rating [7, 15]: 40
- Velvetleaf plant response rating [7, 16]: 50
- Plant response rating, Velvetleaf [7, 17]: 65
- Plant response rating, Velvetleaf [7, 18]: 80
- Plant response rating (scale 0 to 100), Velvetleaf ([7]; Preemergence, 125 g ai/ha): 100
- Plant response rating, Velvetleaf [7, 19]: 60
- Plant response rating, Velvetleaf [7, 20]: 100
- Plant response rating, Velvetleaf [7, 21]: 100
- Wheat plant response rating [8, 15]: 0
- Wheat plant response rating [8, 16]: 5
- Plant response rating, Wheat [8, 17]: 5
- Plant response rating, Wheat [8, 18]: 20
- Plant response rating (scale 0 to 100), Wheat ([8]; Preemergence, 125 g ai/ha): 0
- Plant response rating, Wheat [8, 19]: 0
- Plant response rating, Wheat [8, 20]: 0
- Plant response rating, Wheat [8, 21]: 0
- Ryegrass, Italian plant response rating [9, 15]: 0
- Ryegrass, Italian plant response rating [9, 16]: 0
- Plant response rating, Ryegrass, Italian [9, 17]: 0
- Plant response rating, Ryegrass, Italian [9, 18]: 0
- Plant response rating (scale 0 to 100), Ryegrass, Italian ([9]; Preemergence, 125 g ai/ha): 30
- Plant response rating, Ryegrass, Italian [9, 19]: 0
- Plant response rating, Ryegrass, Italian [9, 20]: 0
- Plant response rating, Ryegrass, Italian [9, 21]: 0
- Corn plant response rating [10, 15]: 0
- Corn plant response rating [10, 16]: 0
- Plant response rating, Corn [10, 17]: 5
- Plant response rating, Corn [10, 18]: 5
- Plant response rating (scale 0 to 100), Corn ([10]; Preemergence, 125 g ai/ha): 5
- Plant response rating, Corn [10, 19]: 5
- Plant response rating, Corn [10, 20]: 0
- Plant response rating, Corn [10, 21]: 0
- Oilseed Rape plant response rating [11, 15]: 60
- Oilseed Rape plant response rating [11, 16]: 50
- Plant response rating, Oilseed Rape [11, 17]: 65
- Plant response rating, Oilseed Rape [11, 18]: 90
- Plant response rating (scale 0 to 100), Oilseed Rape ([11]; Preemergence, 125 g ai/ha): 100
- Plant response rating, Oilseed Rape [11, 19]: 80
- Plant response rating, Oilseed Rape [11, 20]: 98
- Plant response rating, Oilseed Rape [11, 21]: 90
- Plant response rating, Kochia [12, 22]: 90
- Plant response rating, Kochia [12, 23]: 100
- Plant response rating, Kochia [12, 24]: 90
- Plant response rating, Kochia [12, 25]: 100
- Plant response rating, Ragweed [13, 22]: 60
- Plant response rating, Ragweed [13, 23]: 90
- Plant response rating, Ragweed [13, 24]: 20
- Plant response rating, Ragweed [13, 25]: 50
- Plant response rating, Ryegrass, Italian [14, 22]: 0
- Plant response rating, Ryegrass, Italian [14, 23]: 80
- Plant response rating, Ryegrass, Italian [14, 24]: 0
- Plant response rating, Ryegrass, Italian [14, 25]: 30

Structure (SMILES): Fc1ccc(Oc2ncc(Cl)cn2)c(-c2cc(C(F)F)on2)c1Cl [Compound 96]
- Sedge, Umbrella plant response rating [1]: 100
- Ducksalad plant response rating [2]: 90
- Rice plant response rating [3]: 30
- Barnyardgrass plant response rating [4]: 15
- Galium plant response rating [5, 15]: 70
- Galium plant response rating [5, 16]: 90
- Plant response rating, Galium [5, 17]: 80
- Plant response rating, Galium [5, 18]: 98
- Lambsquarters plant response rating [6, 15]: 65
- Lambsquarters plant response rating [6, 16]: 65
- Plant response rating, Lambsquarters [6, 17]: 90
- Plant response rating, Lambsquarters [6, 18]: 95
- Velvetleaf plant response rating [7, 15]: 20
- Velvetleaf plant response rating [7, 16]: 35
- Plant response rating, Velvetleaf [7, 17]: 35
- Plant response rating, Velvetleaf [7, 18]: 35
- Wheat plant response rating [8, 15]: 0
- Wheat plant response rating [8, 16]: 0
- Plant response rating, Wheat [8, 17]: 0
- Plant response rating, Wheat [8, 18]: 10
- Ryegrass, Italian plant response rating [9, 15]: 0
- Ryegrass, Italian plant response rating [9, 16]: 5
- Plant response rating, Ryegrass, Italian [9, 17]: 10
- Plant response rating, Ryegrass, Italian [9, 18]: 10
- Corn plant response rating [10, 15]: 5
- Corn plant response rating [10, 16]: 15
- Plant response rating, Corn [10, 17]: 5
- Plant response rating, Corn [10, 18]: 5
- Oilseed Rape plant response rating [11, 15]: 40
- Oilseed Rape plant response rating [11, 16]: 45
- Plant response rating, Oilseed Rape [11, 17]: 65
- Plant response rating, Oilseed Rape [11, 18]: 65
- Plant response rating, Kochia [12, 26]: 70
- Plant response rating, Kochia [12, 22]: 100
- Kochia plant response rating [12, 27]: 50
- Plant response rating, Kochia [12, 24]: 70
- Plant response rating, Ragweed [13, 26]: 50
- Plant response rating, Ragweed [13, 22]: 60
- Ragweed plant response rating [13, 27]: 0
- Plant response rating, Ragweed [13, 24]: 0
- Plant response rating, Ryegrass, Italian [14, 26]: 30
- Plant response rating, Ryegrass, Italian [14, 22]: 60
- Ryegrass, Italian plant response rating [14, 27]: 0
- Plant response rating, Ryegrass, Italian [14, 24]: 0

Structure (SMILES): COc1cccc(Oc2ncc(Cl)cn2)c1-c1cc(C(F)(F)F)no1 [Compound 104]
- Sedge, Umbrella plant response rating [1]: 80
- Ducksalad plant response rating [2]: 75
- Rice plant response rating [3]: 0
- Barnyardgrass plant response rating [4]: 20
- Plant response rating (scale 0 to 100), Galium ([5]; Preemergence, 125 g ai/ha): 70
- Plant response rating, Galium [5, 19]: 90
- Plant response rating, Galium [5, 20]: 80
- Plant response rating, Galium [5, 21]: 75
- Plant response rating (scale 0 to 100), Lambsquarters ([6]; Preemergence, 125 g ai/ha): 90
- Plant response rating, Lambsquarters [6, 19]: 65
- Plant response rating, Lambsquarters [6, 20]: 80
- Plant response rating, Lambsquarters [6, 21]: 90
- Plant response rating (scale 0 to 100), Velvetleaf ([7]; Preemergence, 125 g ai/ha): 65
- Plant response rating, Velvetleaf [7, 19]: 25
- Plant response rating, Velvetleaf [7, 20]: 50
- Plant response rating, Velvetleaf [7, 21]: 70
- Plant response rating (scale 0 to 100), Wheat ([8]; Preemergence, 125 g ai/ha): 5
- Plant response rating, Wheat [8, 19]: 0
- Plant response rating, Wheat [8, 20]: 0
- Plant response rating, Wheat [8, 21]: 5
- Plant response rating (scale 0 to 100), Ryegrass, Italian ([9]; Preemergence, 125 g ai/ha): 5
- Plant response rating, Ryegrass, Italian [9, 19]: 0
- Plant response rating, Ryegrass, Italian [9, 20]: 0
- Plant response rating, Ryegrass, Italian [9, 21]: 0
- Plant response rating (scale 0 to 100), Corn ([10]; Preemergence, 125 g ai/ha): 0
- Plant response rating, Corn [10, 19]: 0
- Plant response rating, Corn [10, 20]: 0
- Plant response rating, Corn [10, 21]: 0
- Plant response rating (scale 0 to 100), Oilseed Rape ([11]; Preemergence, 125 g ai/ha): 50
- Plant response rating, Oilseed Rape [11, 19]: 0
- Plant response rating, Oilseed Rape [11, 20]: 0
- Plant response rating, Oilseed Rape [11, 21]: 30
- Plant response rating, Kochia [12, 26]: 50
- Plant response rating, Kochia [12, 22]: 80
- Kochia plant response rating [12, 27]: 0
- Plant response rating, Kochia [12, 24]: 10
- Plant response rating, Ragweed [13, 26]: 10
- Plant response rating, Ragweed [13, 22]: 10
- Ragweed plant response rating [13, 27]: 0
- Plant response rating, Ragweed [13, 24]: 0
- Plant response rating, Ryegrass, Italian [14, 26]: 0
- Plant response rating, Ryegrass, Italian [14, 22]: 30
- Ryegrass, Italian plant response rating [14, 27]: 0
- Plant response rating, Ryegrass, Italian [14, 24]: 10
